# Experimental data as given in ChEMBL document CHEMBL1129113, “Adipoyl-6-aminopenicillanic acid is a substrate for deacetoxycephalosporin C synthase (DAOCS)” (Bioorg Med Chem Lett, 1996).
# Tests used:
# [1] = test system: Escherichia coli; experiment: Enzyme catalytic constant (Kcat) against Deacetoxycephalosporin C synthase
# [2] = test system: Escherichia coli; experiment: Enzyme kinetic constant (Km) against Deacetoxycephalosporin C synthase
Structure (SMILES),k cat [1],Km [2]
CC1(C)S[C@@H]2[C@H](NC(=O)CCCCC(=O)O)C(=O)N2[C@H]1C(=O)O,0.071 s⁻¹,1.22 mM
CC1(C)S[C@@H]2[C@H](NC(=O)CCC[C@@H](N)C(=O)O)C(=O)N2[C@H]1C(=O)O,0.442 s⁻¹,10.3 mM
